These results are taken from ChEMBL document CHEMBL5360561, “Design, synthesis and biological evaluation of fluorinated selective estrogen receptor degraders (FSERDs) --- A promising strategy for advanced ER positive breast cancer” (Eur J Med Chem, 2023).

A short description of data set [1]: Tmax in ICR mouse at 3 mg/kg, iv and measured upto 24 hrs by LC-MS analysis. The following applies: in vivo. The class given is ADME, organism-based.
Data set [2] has as its system MCF7. As to the kind of experiment: Induction of ER degradation in Estradiol stimulated human MCF7 cells assessed as decrease in TFF1 gene expression level at 1 to 10 uM incubated for 24 hrs by RT-qPCR analysis. The class given is cell-based. The following applies: dose 1-10 µM. In general terms: In qPCR the cycle at which signal appears reflects the starting amount.

Data set [3] relates to MCF7. In words: Induction of ER degradation in human MCF7 cells transfected with ERE-luciferase plasmid assessed as decrease in estradiol induced ERE-luciferase activity by measuring luminescence at 10 uM incubated for 24 hrs by luciferase assay. The class given is cell-based.
Data set [4] can be described thus: MRT(t) in ICR mouse at 30 mg/kg, po and measured upto 24 hrs by LC-MS analysis. In kind it is ADME, organism-based. The following applies: in vivo.
Data set [5] deals with MCF7. In words: Induction of cell cycle arrest in human MCF7 cells assessed as accumulation at G0/G1 phase at 10 uM incubated for 24 hrs by flow cytometry (Rvb= 46.53 +/- 0.44%). The class given is functional. In general terms: A flow cytometer gives signals particle by particle.
A short description of data set [6]: AUCt in ICR mouse at 30 mg/kg, po and measured upto 24 hrs by LC-MS analysis. The class given is ADME, organism-based. More on the design: time < 24 hrs, dose 30 mg/kg, route po. The following applies: in vivo.
The nature of data set [7]: Toxicity in mouse xenografted with human MCF7 cells assessed as morphological changes in liver at 30 mg/kg,po for 30 days daily by Hematoxylin and eosin staining based microscopy. The class given is organism-based. As to conditions: in vivo, 720 h, time 30 day. Background: A xenograft is tissue or cells of one species grown in another, often human tumour cells in immunodeficient mice.

The nature of data set [8]: AUC (0 to infinity) in ICR mouse at 30 mg/kg, po and measured upto 24 hrs by LC-MS analysis. In kind it is ADME, organism-based. More on the design: time < 24 hrs, dose 30 mg/kg, route po. The following applies: in vivo.
The nature of data set [9]: Cmax in ICR mouse at 30 mg/kg, po and measured upto 24 hrs by LC-MS analysis. The class given is ADME, organism-based. More on the design: time < 24 hrs, dose 30 mg/kg, route po. As to conditions: in vivo.
The nature of data set [10]: Toxicity in mouse xenografted with human MCF7 cells assessed as morphological changes in kidney at 30 mg/kg,po for 30 days daily by Hematoxylin and eosin staining based microscopy. The class given is organism-based. As to conditions: in vivo, 720 h, time 30 day.
Data set [11] in a line: Toxicity in mouse xenografted with human MCF7 cells assessed as body weight loss at 30 mg/kg,po for 30 days daily. In kind it is organism-based. As to conditions: in vivo, 720 h, time 30 day.
Data set [12] can be described thus: AUC (0 to infinity) in ICR mouse at 3 mg/kg, iv and measured upto 24 hrs by LC-MS analysis. In kind it is ADME, organism-based. More on the design: time < 24 hrs, dose 3 mg/kg, route iv. As to conditions: in vivo.
In data set [13] the test system is Mus musculus. In words: In vivo ER degradation in mouse xenografted with human MCF7 cells assessed as reduction in ER expression level in tumor at 30 mg/kg,po for 30 days daily by […]. As to conditions: time 30.0 day. In kind it is functional, organism-based.
Data set [14] in a line: AUCt in ICR mouse at 3 mg/kg, iv and measured upto 24 hrs by LC-MS analysis. In kind it is ADME, organism-based. Details: dose 3 mg/kg, time < 24 hrs, route iv. As to conditions: in vivo.
Data set [15] can be described thus: Half life in ICR mouse at 30 mg/kg, po and measured upto 24 hrs by LC-MS analysis. In kind it is ADME, organism-based. The following applies: in vivo.
Data set [16] has as its system MCF7. As to the kind of experiment: Induction of ER degradation in Estradiol stimulated human MCF7 cells assessed as decrease in PGR gene expression level at 1 to 10 uM incubated for 24 hrs by RT-qPCR analysis. In kind it is cell-based. As to conditions: dose 1-10 µM.
Data set [17] deals with Ishikawa. In words: Antiproliferative activity against human Ishikawa cells assessed as cell growth inhibition at 20 uM incubated for 3 days by MTT assay. The class given is functional. The following applies: 72 h, time 3 day.
The nature of data set [18]: Toxicity in mouse xenografted with human MCF7 cells assessed as morphological changes in heart at 30 mg/kg,po for 30 days daily by Hematoxylin and eosin staining based microscopy. In kind it is organism-based. The following applies: in vivo, 720 h, time 30 day.
A short description of data set [19]: Oral bioavailability in ICR mouse at 30 mg/kg and measured upto 24 hrs by LC-MS analysis. The following applies: in vivo. In kind it is ADME, organism-based.
Data set [20] is described as follows: Half life in ICR mouse at 3 mg/kg, iv and measured upto 24 hrs by LC-MS analysis. In kind it is ADME, organism-based. The following applies: in vivo.
Data set [21] relates to MCF7. As to the kind of experiment: Antiproliferative activity against human MCF7 cells assessed as cell growth inhibition incubated for 5 days by MTT assay. As to conditions: MCF7, 120 h. The class given is functional, cell-based.
Data set [22] concerns MCF7. In words: Induction of ER degradation in Estradiol stimulated human MCF7 cells assessed as decrease in GREB1 mRNA expression level at 1 to 10 uM incubated for 24 hrs by RT-qPCR analysis. The class given is cell-based. As to conditions: dose 1-10 µM.
In data set [23] the test system is MCF7. As to the kind of experiment: Antitumor activity against human MCF7 cells xenografted in nude mouse assessed as reduction in Ki67 expression at 30 mg/kg,po for 30 days daily by immunohistochemical analysis. The class given is functional, organism-based. The following applies: time 30.0 day.
Data set [24] can be described thus: MRT (0 to infinity) in ICR mouse at 30 mg/kg, po and measured upto 24 hrs by LC-MS analysis. In kind it is ADME, organism-based. As to conditions: in vivo.
Data set [25] in a line: MRT(t) in ICR mouse at 3 mg/kg, iv and measured upto 24 hrs by LC-MS analysis. In kind it is ADME, organism-based. The following applies: in vivo.
The nature of data set [26]: Apparent volume of distribution in ICR mouse at 3 mg/kg, iv and measured upto 24 hrs by LC-MS analysis. The class given is ADME, organism-based. As to conditions: in vivo, read-out: Vz.
Data set [27] can be described thus: Toxicity in Sprague-Dawley rat uterus assessed as change in uterine wet weight at 30 mg/kg, po for 2 days consecutively. As to conditions: in vivo, 48 h, time 2 day. The class given is organism-based.
Data set [28] can be described thus: C0 in ICR mouse at 3 mg/kg, iv and measured upto 24 hrs by LC-MS analysis. In kind it is ADME, organism-based. As to conditions: in vivo.
In data set [29] the test system is MCF7. As to the kind of experiment: Induction of ER degradation in human MCF7 cells at 10 uM incubated for 24 hrs by Western blot analysis. The class given is cell-based.
The nature of data set [30]: Cmax in ICR mouse at 3 mg/kg, iv and measured upto 24 hrs by LC-MS analysis. More on the design: dose 3 mg/kg, time < 24 hrs, route iv. The following applies: in vivo. The class given is ADME, organism-based.
The test system of data set [31] is MCF7. In words: Induction of ER degradation in human MCF7 cells at 0.001 to 10 uM incubated for 24 hrs by Western blot analysis. As to conditions: dose 0.001-10 µM. The class given is cell-based.
The nature of data set [32]: MRT (0 to infinity) in ICR mouse at 3 mg/kg, iv and measured upto 24 hrs by LC-MS analysis. In kind it is ADME, organism-based. The following applies: in vivo.
Data set [33] relates to Mus musculus. As to the kind of experiment: In vivo ER degradation in mouse xenografted with human MCF7 cells assessed as reduction in PR expression level in tumor at 30 mg/kg,po for 30 days daily by […]. The class given is functional, organism-based. As to conditions: time 30.0 day.
Data set [34] can be described thus: Clearance in ICR mouse at 3 mg/kg, iv and measured upto 24 hrs by LC-MS analysis. The class given is ADME, organism-based. As to conditions: in vivo.
Data set [35] in a line: Tmax in ICR mouse at 30 mg/kg, po and measured upto 24 hrs by LC-MS analysis. In kind it is ADME, organism-based. The following applies: in vivo.
For data set [36], the system named is MCF7. In words: Antitumor activity against human MCF7 cells xenografted in nude mouse assessed as tumor growth inhibition at 30 mg/kg,po for 30 days daily. In kind it is functional, organism-based. The following applies: time 30.0 day.
Data set [37] can be described thus: Toxicity in mouse xenografted with human MCF7 cells assessed as morphological changes in spleen at 30 mg/kg,po for 30 days daily by Hematoxylin and eosin staining based microscopy. As to conditions: in vivo, 720 h, time 30 day. The class given is organism-based.
Data set [38] relates to MCF7. As to the kind of experiment: Induction of ER degradation in human MCF7 cells at 10 uM incubated for 24 hrs by DAPI staining based immunofluorescence analysis. In kind it is cell-based.
Data set [39] is described as follows: Toxicity in Sprague-Dawley rat uterus assessed as increase in uterine wet weight at 0.1 mg/kg, po for 2 days consecutively. The class given is organism-based. The following applies: in vivo, 48 h, time 2 day.

As a reminder, the Tmax is the time from dosing to the highest level. What is called MRT last is the average time that molecules of a dose stay in the body. Usually AUC(0-t) stands for exposure summed from dosing to a finite time, without extrapolation to infinity. High values mean more exposure, low ones less exposure. For orientation: AUC(0-inf) means the area under the concentration-time curve extrapolated to infinity. As usually defined, the Cmax is the peak of the concentration-time curve. The half-life is how long it takes for the measured level to halve. Read a low half-life as rapid decline. The term inhibition denotes the relative decrease from the control value, in per cent. As a reminder, the bioavailability is the share of a dose that reaches the circulation, judged against a reference dose that is usually intravenous. Read a high bioavailability as much systemic uptake. By IC50 is commonly meant the concentration that inhibits the measured activity by half. The term MRT inf denotes the average time that molecules of a dose stay in the body. By clearance is commonly meant the rate of elimination divided by the concentration.

Molecules are shown by their SMILES. Active and inactive are the calls of the source. The calls are words filed in the database; no cut-off is given here.

Regarding `Cc1cc(F)cc(C)c1C(=O)c1sc2cc(F)ccc2c1Oc1ccc(/C=C/C(=O)O)cc1`, the Tmax in [1] came out at 1.8 min; in [35] it was 0.333 h. The outcome in data set [2], in data set [3], in data set [13], in data set [16], in data set [22] and in [23] was Active. The result in data set [29], in data set [33], in data set [36] and in data set [38] was Active. In addition, the results for the MRT last at 24 h in data set [4] and in data set [25] were 4.39 h and 0.978 h, respectively. Moreover, the Activity in data set [5] is 56.1%; in [7], “Non-Toxic”; in data set [10], “Non-Toxic”; in data set [11], “Non-Toxic”; in data set [18] it was “Non-Toxic”; in [27], “Non-Toxic”. In addition, the Activity result in data set [31] was “Dose-Dependent Effect”; in [37], “Non-Toxic”. Moreover, the figures for the AUC(0-t) at 24 h in [6] and in data set [14] were 26.6 µg·h/mL and 4.61 µg·h/mL, respectively. Further, the AUC(0-inf) in [8] was 29.2 µg·h/mL; in data set [12] it was 4.64 µg·h/mL. Besides, the results for the Cmax in data set [9] and in [30] were 5.53 µg/mL and 4.5 µg/mL, respectively. Moreover, the half-life in data set [15] is 3.13 h; in data set [20], 1.23 h. The inhibition at 20 µM in [17] worked out at 12%. The compound further came in with a bioavailability in data set [19] of 62.9%. Further, the IC50 in data set [21] is 0.055 µM. Besides, the MRT inf in data set [24] came out at 6.06 h; in [32], 1.04 h. Further, in data set [26], the Vd amounted to 1.13 L/kg. Besides, the C0 at 24 h in data set [28] worked out at 4.84 µg/mL. In data set [34], this compound showed a clearance of 0.66 L/h/kg.
As for `C[C@]12CC[C@@H]3c4ccc(O)cc4CC[C@H]3[C@@H]1CC[C@@H]2O` [ESTRADIOL], in data set [39], the Activity entry is listed as “Toxic”.
